Test results: paper PMC9085681, “Towards Optimized Bioavailability of ^99mTc-Labeled Barbiturates for Non-invasive Imaging of Matrix Metalloproteinase Activity” (Molecular Imaging and Biology, 2021)
Counter-ions that a name gives are not always drawn. Like-named read-outs stand apart in the source and are kept apart here.

Experiments:
[1] = molecular target: T1, MMP-2 (Homo sapiens, UniProt P08253); assay: in vitro MMP inhibition assay (fluorogenic substrate, protocol of Huang et al.); type: biochemical
T1 sequence (P08253 110-660): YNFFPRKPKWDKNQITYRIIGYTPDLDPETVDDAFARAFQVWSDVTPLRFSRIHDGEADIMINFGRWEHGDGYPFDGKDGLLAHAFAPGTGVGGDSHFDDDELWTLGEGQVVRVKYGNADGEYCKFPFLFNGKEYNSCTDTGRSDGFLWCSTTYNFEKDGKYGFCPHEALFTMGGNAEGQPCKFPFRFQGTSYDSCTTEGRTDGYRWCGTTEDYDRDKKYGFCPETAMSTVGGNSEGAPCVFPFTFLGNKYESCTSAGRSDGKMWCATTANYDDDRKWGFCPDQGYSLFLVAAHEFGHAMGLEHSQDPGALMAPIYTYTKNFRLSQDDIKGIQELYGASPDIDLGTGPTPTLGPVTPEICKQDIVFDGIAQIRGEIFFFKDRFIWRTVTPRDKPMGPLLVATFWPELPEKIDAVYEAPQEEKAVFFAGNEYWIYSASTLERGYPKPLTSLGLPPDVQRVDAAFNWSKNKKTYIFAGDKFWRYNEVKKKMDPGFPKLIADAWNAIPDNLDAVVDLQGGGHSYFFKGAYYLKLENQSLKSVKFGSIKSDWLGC
Description: (§1) In order to evaluate the affinity of the new barbiturate-based compounds towards MMPs, an in vitro inhibition study was performed. The IC50-values were determined for MMP-2, MMP-8, MMP-9, MMP-13, and […] using the protocol from Huang et al. Additionally, the corresponding precursors were also measured and outlined in the SI for comparison.
(§2) To determine the relative potency of new inhibitors in terms of IC50-values the method developed by Huang et al. was applied in an in vitro inhibition study.[14] Compounds of interest were evaluated regarding affinity to MMP-2, -8, -9, -13 and -14 using the artificial MMP-substrate (7-Methoxycoumarine-4-yl)-acetyl-Pro-Leu-Gly-Leu-[3-(2,4-dinitrophenyl)-l-2,3-diaminopropionyl]-Ala-Arg-NH2 (R&D Systems, Minneapolis, USA). The activated form of the corresponding MMPs (2 nM each) were incubated at 37 °C with the barbiturate derivatives in different concentrations (10 pM-1 mM) in TRIS-buffer (50 mM, pH = 7.5), sodium chloride (0.2M), calcium chloride (5 mM), zinc sulfate (20 µM) and Brij® (0.05%) for 30 min. Samples of this mixture (90 µL) were added to the substrate (50 µM, 10 µL) at 37 °C and the increase of fluorescence as a function of time was measured using a TriStar² LB 942 Analyzers (Berthold Technologies, λEx = 330 nm, λEm = 390 nm). The linear change of relative fluorescence after 10 min was plotted as a function of the concentration of the used inbhibitor. The IC50-values were determined by non-linear regression using the Grace 5.1.8 software (Linux).

[2] = molecular target: MMP-9 (Homo sapiens, UniProt P14780); assay: as above; type: biochemical
MMP-9, sequence (P14780 107-707 limits assumed, species assumed): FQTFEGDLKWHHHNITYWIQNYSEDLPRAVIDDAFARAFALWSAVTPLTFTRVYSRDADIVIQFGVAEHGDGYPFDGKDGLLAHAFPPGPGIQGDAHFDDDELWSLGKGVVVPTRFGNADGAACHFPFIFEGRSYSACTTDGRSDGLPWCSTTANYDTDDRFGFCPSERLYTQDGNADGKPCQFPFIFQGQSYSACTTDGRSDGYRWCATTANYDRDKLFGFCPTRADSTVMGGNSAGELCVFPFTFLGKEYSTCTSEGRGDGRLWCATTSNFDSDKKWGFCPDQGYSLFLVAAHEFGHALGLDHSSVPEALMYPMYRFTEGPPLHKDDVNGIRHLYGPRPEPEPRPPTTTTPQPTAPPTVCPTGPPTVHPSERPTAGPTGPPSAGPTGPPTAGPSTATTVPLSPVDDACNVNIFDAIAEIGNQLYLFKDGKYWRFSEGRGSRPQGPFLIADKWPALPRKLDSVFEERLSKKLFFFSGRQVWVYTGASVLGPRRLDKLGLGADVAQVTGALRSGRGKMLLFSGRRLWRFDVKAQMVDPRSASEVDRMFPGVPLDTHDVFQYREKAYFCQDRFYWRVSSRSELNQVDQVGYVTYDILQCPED
Description: as §1, §2

[3] = molecular target: MMP-8 (Homo sapiens, UniProt P22894); assay: as above; type: biochemical
MMP-8, sequence (P22894 101-467, species assumed): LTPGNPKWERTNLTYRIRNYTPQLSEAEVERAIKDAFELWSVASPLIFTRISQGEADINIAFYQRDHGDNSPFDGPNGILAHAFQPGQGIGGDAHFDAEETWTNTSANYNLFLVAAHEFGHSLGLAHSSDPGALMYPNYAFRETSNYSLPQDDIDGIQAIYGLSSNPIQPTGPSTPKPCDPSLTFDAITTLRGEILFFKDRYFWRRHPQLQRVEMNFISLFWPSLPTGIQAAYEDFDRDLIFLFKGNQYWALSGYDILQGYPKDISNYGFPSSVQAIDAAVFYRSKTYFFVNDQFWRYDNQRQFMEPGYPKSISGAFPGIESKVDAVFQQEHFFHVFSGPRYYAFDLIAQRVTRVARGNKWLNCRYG
Description: as §1, §2

[4] = molecular target: MMP-13 (Homo sapiens, UniProt P45452); assay: as above; type: biochemical
Description: as §1, §2

[5] = molecular target: MMP-14 (Homo sapiens, UniProt P50281); assay: as above; type: biochemical
Description: as §1, §2

[6] = distribution coefficient (logDexp), 1-octanol / PBS-buffer; type: physicochemical; details: 1-octanol / PBS-buffer pH = 7.4, 99mTc-labeled compound
Description: The serum stability of all radiolabeled compounds was evaluated by incubation in human and murine serum at 37 °C for up to 120 min and analyzed by HPLC. The distribution coefficients (logDexp) were determined in a two-phase system consisting of 1-octanol and PBS-buffer (pH = 7.4) according to the literature.
Following a method described by Prante et al.[13], the distribution coefficient (logDexp) of the radioactive compound was determined in a two-phase system consisting of 1-octanol and PBS-buffer (pH = 7.4) to determine the lipophilicity. For this purpose, the corresponding ligand (~ 20 kBq) was dissolved in buffer (500 μL). 1-Octanol (500 μL) was added and the mixture was shaken at room temperature for 1 min. To achieve phase separation, the system was centrifuged for 2 min at 3000 rpm. Subsequently a part of the octanol phase (400 μL) was removed and buffer (400 μL) was added. The combined phases were shaken and layers were separated according to the description above. Aliquots of the buffer and octanol layers (3 × 100 μL from every layer) were taken to measure radioactivity in a γ-counter. The measurement provided the activity in counts per minute (cpm), the values were decay corrected. By calculating the quotient of cpm (1-Octanol)cpm (PBS) the logDexp can be determined as logcpm (1-Octanol)cpm (PBS).

[7] = activated MMP 2 nM, 37 °C, 30 min preincubation, non-radioactive compound, read-out: IC50 MMP-2
[8] = activated MMP 2 nM, 37 °C, 30 min preincubation, non-radioactive compound, read-out: IC50 MMP-9
[9] = activated MMP 2 nM, 37 °C, 30 min preincubation, non-radioactive compound, read-out: IC50 MMP-8
[10] = activated MMP 2 nM, 37 °C, 30 min preincubation, non-radioactive compound, read-out: IC50 MMP-13
[11] = activated MMP 2 nM, 37 °C, 30 min preincubation, non-radioactive compound, read-out: IC50 MMP-14

Row | SMILES | IC50 [1, 7] [nM] | IC50 [2, 8] [nM] | IC50 [3, 9] [nM] | IC50 [4, 10] [nM] | IC50 [5, 11] [nM] | LogD (compound labeled by [^99mTc]) [6] | other results
1 | N[C@@H](Cc1cn(CCOCCOCCOCCN2CCN(C3(c4ccc(Oc5ccccc5)cc4)C(=O)NC(=O)NC3=O)CC2)nn1)C(=O)[O][Re](=[C]=O)(=[C]=O)=[C]=O [MEA39, (S)-2-Amino-3-[1-(2-{2-[2-(2-{4-[2,4,6-trioxo-5-(4-phenoxyphenyl)-hexahydropyrimidine-5-yl]piperazine-1-yl}ethoxy)ethoxy]ethoxy}ethyl)-1H-1,2,3-triazol-4-yl]propionic acid-carbonyl rhenium(I)] | 2 ± 0.5 | 0.9 ± 0.1 | 28 ± 7 | 2 ± 0.3 | 5.9 ± 0.7 | 0.79 ± 0.03 | 
2 | NCCCC[C@H](NCc1cn(CCOCCOCCOCCN2CCN(C3(c4ccc(Oc5ccccc5)cc4)C(=O)NC(=O)NC3=O)CC2)nn1)C(=O)[O-].O=[C]=[Re+](=[C]=O)=[C]=O [MEA61, {[1-(2-{2-[2-(2-{4-[2,4,6-Trioxo-5-(4-phenoxyphenyl)hexahydropyrimidin-5-yl]piperazin-1-yl}ethoxy)ethoxy]ethoxy}ethyl)-1H-1,2,3-triazol-4-yl]methyl}-L-lysinate tricarbonylrhenium(I)] | 3.6 ± 0.7 | 8 ± 0.5 | 5.5 ± 0.4 | 26 ± 0.6 | 14 ± 0.8 | 0.35 ± 0.23 | 
3 | N[C@@H](Cc1cn(CCOCCOCCOCCN2CCN(C3(c4ccc(Oc5ccccc5)cc4)C(=O)NC(=O)NC3=O)CC2)nn1)C(=O)O [compound 14, (S)-2-Amino-3-[1-(2-{2-[2-(2-{4-[2,4,6-trioxo-5-(4-phenoxyphenyl)-hexahydropyrimidine-5-yl]piperazine-1-yl}ethoxy)ethoxy]ethoxy}ethyl)-1H-1,2,3-triazol-4-yl]propionic acid potassium salt] |  |  |  |  |  |  | IC50 ([1]; read-out: IC50 MMP-2, activated MMP 2 nM, 37 °C, 30 min preincubation, non-radioactive compound): 0.6 ± 0.1 nM; IC50 ([2]; read-out: IC50 MMP-9, activated MMP 2 nM, 37 °C, 30 min preincubation, non-radioactive compound): 1.4 ± 0.3 nM; IC50 ([3]; read-out: IC50 MMP-8, activated MMP 2 nM, 37 °C, 30 min preincubation, non-radioactive compound): 3.6 ± 2.6 nM; IC50 ([4]; read-out: IC50 MMP-13, activated MMP 2 nM, 37 °C, 30 min preincubation, non-radioactive compound): 27 ± 9 nM; IC50 ([5]; read-out: IC50 MMP-14, activated MMP 2 nM, 37 °C, 30 min preincubation, non-radioactive compound): 1.5 ± 0.4 nM
4 | NCCCC[C@H](NCc1cn(CCOCCOCCOCCN2CCN(C3(c4ccc(Oc5ccccc5)cc4)C(=O)NC(=O)NC3=O)CC2)nn1)C(=O)O [compound 17, {[1-(2-{2-[2-(2-{4-[2,4,6-Trioxo-5-(4-phenoxyphenyl)hexahydropyrimidin-5-yl]piperazin-1-yl}ethoxy)ethoxy]ethoxy}ethyl)-1H-1,2,3-triazol-4-yl]methyl}-L-lysinate] |  |  |  |  |  |  | IC50 [1]: 7 ± 3 nM; IC50 [2]: 10 ± 2 nM; IC50 [3]: 18 ± 3 nM; IC50 [4]: 58 ± 9 nM; IC50 [5]: 19 ± 2 nM
